Legend:
Erk2 = molecular target: T1, Erk2 (Homo sapiens, UniProt P28482); experiment: LabChip (Caliper) kinase assay, Erk2; format: biochemical; settings: read-out: remaining kinase activity (in %) / percentage of inhibition; for inhibition at 0.01 µM: compound at 10 nM; for inhibition at 0.1 µM: compound at 100 nM
T1 construct: purchased Carna Biosciences
Protocol: (§1) The analysis of kinase activity described here was performed using LabChip (Caliper Life Sciences), specifically the Caliper LC3000 and the EZ Reader II instruments.
(§2) The kinase assay used measures the conversion of a fluorescent peptide (substrate) to a phosphorylated product. The reaction mixture, in a microplate well, is introduced by a capillary in a chip where the non-phosphorylated substrate and the phosphorylated product are separated by […]. The intensity of the fluorescent signal over time is related to the reaction progress. The phosphorylated product migrates quicker than the non-phosphorylated substrate and the signals of the two forms of the peptide appear as differentiated peaks. The Caliper determines the peak height and calculates the ratio of product to the peak sum (P/(P+S)). This value is used to compare wells with compounds and wells with controls and thus determine the % of inhibition for the given product.
(§3) The followings kinases were used for the enzymatic inhibition studies, between brackets the value of the Michaelis-Menten constant, Km, of the ATP (Adenosine triphosphate) for each kinase, in μM: obtained from Carna Biosciences: MAPKAPK2 (4.6), AurA (3.6), AurB (5), PKCζ (3.8), RSK1 (23.3), PRAK (5), Erk1 (33.4), PKD2 (32.1), CK1d (16.3), CHK1 (33), ABL (61.7), FYN (36), LYNa (17), CHK2 (57.8), MET (79.5), LCK (28.5), SRC (38), GSK3β (7.3), Erk2 (62.1), PKACα (1.7), AKT2 (186.1), INSR (871.8), p38a (396.5), AKT1(48), MSK1 (21.2), PKCβ2 (84.8), ROCK2 (3.3), PIM2 (4.9), AMPK (38.6), KDR (164.8), IRAK4 (196.5), SGK1 (121.8), SYK (33.5); obtained from Invitrogen: CDK2 (57.6), BTK (123), HGK (80); obtained from Upstate: MST2 (36.6), PKGα (16), PAK2 (1.9), IGF1R (320), FGFR1 (171), MARK1 (33), CAMK2δ (22.4), c-TAK1 (66), DYRK1a (18.1), CaMK4 (3.9), FLT3 (350), c-Raf (6.2), P70S6K (95).
(§4) The compounds were dissolved in 100% DMSO and were diluted at 25 times the final concentration desired for the assay. In the case of the determination of Cl50, serial dilutions were made to reach eight concentrations and give rise to the inhibition curve. 1 μL of each concentration is transferred, in duplicate to a 384-well microplate. 12 μL of enzymatic buffer is added to each well containing purified kinase (several suppliers as indicated above), 100 mM HEPES, pH 7.5, 1 mM DTT (Calbiochem), 0.002% Brij-35 (Sigma) and also in presence of 10 mM MgCl2 as cofactor, except for INSR and IRAK4 wherein 10 mM MnCl2 is used instead of MgCl2. For the kinases CAMK26 and CAMK4, 1 mM CaCl2 and 6.7 μg/mL of calmodulin are also added. For KDR kinase, 0.05% of the CHAPSO detergent is added. For the c-Raf kinase, 10 mM MnCl2 is added. For PKCβ2 0.02 μg/mL of PS/PMA is added. For PKGα se 10 μM of cGMP (cyclic guanosine monophosphate) is added. The compound and the enzyme are left for 15 minutes preincubation and, then, the following are added to each well: 12 μL of peptide buffer/ATP containing 100 mM HEPES, pH 7.5, 1.5 μM peptide marker with fluorescein (specific for the corresponding kinase), ATP (at concentration KM), and 0.002% Brij-35 to start the reaction. Generally, the reactions are incubated for 1-1.5 h at ambient temperature to obtain an adequate conversion (15-40%) of the peptide to the phosphorylated product. The reactions were ended by the addition of 45 μL of buffer containing 0 mM EDTA. The microplates were read by the LabChip 3000 using a 12-channel LabChip. The P/(P+S) values were obtained as described above and the CI50 curves were generated using XIfit. […]

SGK1 = molecular target: T2, SGK1 (Homo sapiens, UniProt O00141); experiment: LabChip (Caliper) kinase assay, SGK1; format: biochemical; settings: read-out: remaining kinase activity (in %) / percentage of inhibition; for inhibition at 0.01 µM: compound at 10 nM; for inhibition at 0.1 µM: compound at 100 nM
T2 construct: purchased Carna Biosciences
T2 sequence (O00141 1-431): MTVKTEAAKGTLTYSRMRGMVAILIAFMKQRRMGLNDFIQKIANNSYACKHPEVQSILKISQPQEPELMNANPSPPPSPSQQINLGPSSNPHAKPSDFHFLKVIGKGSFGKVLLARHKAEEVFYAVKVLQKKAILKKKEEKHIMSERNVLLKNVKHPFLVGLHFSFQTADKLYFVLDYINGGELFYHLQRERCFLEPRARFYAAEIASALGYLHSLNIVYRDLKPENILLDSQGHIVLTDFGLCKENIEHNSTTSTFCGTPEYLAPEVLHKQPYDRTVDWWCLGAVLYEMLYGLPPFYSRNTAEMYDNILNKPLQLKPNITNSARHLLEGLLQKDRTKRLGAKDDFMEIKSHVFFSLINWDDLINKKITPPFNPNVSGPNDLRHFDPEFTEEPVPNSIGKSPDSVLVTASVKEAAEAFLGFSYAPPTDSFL
Protocol: as §1, §2, §3, §4

T1 sequence (P28482 whole entry): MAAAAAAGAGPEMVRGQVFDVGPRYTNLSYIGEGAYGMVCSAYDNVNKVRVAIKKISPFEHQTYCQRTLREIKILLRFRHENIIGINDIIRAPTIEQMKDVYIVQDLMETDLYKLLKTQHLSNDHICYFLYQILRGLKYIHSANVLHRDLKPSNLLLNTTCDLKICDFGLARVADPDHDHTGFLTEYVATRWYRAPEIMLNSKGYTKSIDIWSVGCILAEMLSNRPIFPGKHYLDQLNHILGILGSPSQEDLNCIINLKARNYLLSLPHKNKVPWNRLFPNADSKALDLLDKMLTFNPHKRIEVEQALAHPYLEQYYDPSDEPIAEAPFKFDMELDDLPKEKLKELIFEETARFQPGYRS

C[C@@H]1O[C@@H](n2c3ccccc3c3c4c(c5c6ccccc6[nH]c5c32)CNC4=O)[C@H](O)[C@H](O)[C@H]1O [formula (XII), N^13-1′-β-L-rhamnosyl-k252c]
inhibition at 0.01 µM (Erk2): -3% | inhibition at 0.1 µM (Erk2): -1% | inhibition at 0.01 µM (SGK1): 7% | inhibition at 0.1 µM (SGK1): 6%

C[C@@H]1O[C@@H](n2c3ccccc3c3c4c(c5c6ccccc6[nH]c5c32)C(=O)NC4=O)C[C@H](O)[C@H]1O [formula (IV), N^13-1′-β-L-olivosylarcyriaflavin]
inhibition at 0.01 µM (Erk2): -2% | inhibition at 0.1 µM (Erk2): -3% | inhibition at 0.01 µM (SGK1): 9% | inhibition at 0.1 µM (SGK1): 17%

C[C@H]1O[C@@H](n2c3ccccc3c3c4c(c5c6ccccc6[nH]c5c32)C(=O)NC4=O)C[C@@H](O)[C@@H]1O [formula (VI), N^13-1′-β-D-olivosylarcyriaflavin]
inhibition at 0.01 µM (Erk2): -1% | inhibition at 0.1 µM (Erk2): 30% | inhibition at 0.01 µM (SGK1): 12% | inhibition at 0.1 µM (SGK1): 27%

C[C@@H]1O[C@@H](n2c3ccccc3c3c4c(c5c6ccccc6[nH]c5c32)C(=O)NC4=O)C[C@@H](O)[C@H]1O [formula (V), N^13-1′-β-L-digitoxosylarcyriaflavin]
inhibition at 0.01 µM (Erk2): -4% | inhibition at 0.1 µM (Erk2): 0% | inhibition at 0.01 µM (SGK1): 17% | inhibition at 0.1 µM (SGK1): 37%

C[C@@H]1O[C@@H](n2c3ccccc3c3c4c(c5c6ccccc6[nH]c5c32)C(=O)NC4=O)[C@H](O)[C@H](O)[C@H]1O [formula (III), N^13-1′-β-L-rhamnosylarcyriaflavin]
inhibition at 0.01 µM (Erk2): -6% | inhibition at 0.1 µM (Erk2): -4% | inhibition at 0.01 µM (SGK1): 8% | inhibition at 0.1 µM (SGK1): 13%

C[C@@H]1O[C@@H](n2c3ccccc3c3c4c(c5c6ccccc6[nH]c5c32)CNC4=O)C[C@@H](O)[C@H]1O [formula (XIV), N^13-1′-β-L-digitoxosyl-k252c]
inhibition at 0.01 µM (Erk2): -4% | inhibition at 0.1 µM (Erk2): 0% | inhibition at 0.01 µM (SGK1): 6% | inhibition at 0.1 µM (SGK1): 14%

C[C@H]1O[C@@H](n2c3ccccc3c3c4c(c5c6ccccc6[nH]c5c32)CNC4=O)C[C@@H](O)[C@@H]1O [formula (XV), N^13-1′-β-D-olivosyl-k252c]
inhibition at 0.01 µM (Erk2): -4% | inhibition at 0.1 µM (Erk2): -2% | inhibition at 0.01 µM (SGK1): 9% | inhibition at 0.1 µM (SGK1): 12%

C[C@@H]1O[C@@H](n2c3ccccc3c3c4c(c5c6ccccc6[nH]c5c32)CNC4=O)C[C@H](O)[C@H]1O [formula (XIII), N^13-1′-β-L-olivosyl-k252c]
inhibition at 0.01 µM (Erk2): -4% | inhibition at 0.1 µM (Erk2): 3% | inhibition at 0.01 µM (SGK1): 8% | inhibition at 0.1 µM (SGK1): 15%

From US8598132B2, “Glycosylated indolocarbazoles, method for obtaining same and uses thereof” (Universidad de Oviedo, priority 2008, dated 2013)
